# Read-outs that look alike come from different tables or passages of the source.
# Tests used:
# [1] = biological target: wildtype CB1R (Homo sapiens, UniProt P21554); assay: Gq-i Ca2+ imaging assay; type: cell-based; conditions: HEK293T cells expressing CB1R
# [2] = tested on: eCB2.0; assay: Gq-i Ca2+ imaging assay; type: cell-based, human; conditions: HEK293T cells expressing eCB2.0
# [3] = tested on: GRABeCBmut (eCBmut) sensor; type: cell-based, human; conditions: cultured rat cortical neurons, even at 100 μM
# [4] = tested on: eCB2.0; assay: BRET Gβγ sensor assay, cells expressing eCB2.0; type: cell-based, human; conditions: 20 μM 2-AG
# [5] = tested on: eCBmut; assay: BRET Gβγ sensor assay, cells expressing eCBmut; type: cell-based, human; conditions: 20 μM 2-AG
# [6] = biological target: human CB1R (Homo sapiens, UniProt P21554); assay: BRET Gβγ sensor assay, cells expressing CB1R; type: cell-based; conditions: 20 μM 2-AG
# [7] = tested on: GRABeCBmut (eCBmut) sensor; assay: eCBmut fluorescence response to ligands in HEK293T cells; type: cell-based, human; conditions: all concentrations tested
# [8] = tested on: spontaneous transient eCB2.0 signals in cultured neurons; type: cell-based, rat
# [9] = tested on: eCB2.0 fluorescence in hippocampal slices; assay: 2-photon imaging of eCB2.0 in acute hippocampal CA1 slices; parameters: species or system mouse
# [10] = tested on: evoked eCB release in dorsolateral striatum (DLS) slices; parameters: species or system mouse
# [11] = tested on: stimulus-evoked eCB2.0 signal in cultured rat cortical neurons; type: cell-based; conditions: 20 electrical pulses, 68 min after application; MAGL (JZL184) or FAAH (URB597) inhibition
# human CB1R, sequence (P21554 whole entry): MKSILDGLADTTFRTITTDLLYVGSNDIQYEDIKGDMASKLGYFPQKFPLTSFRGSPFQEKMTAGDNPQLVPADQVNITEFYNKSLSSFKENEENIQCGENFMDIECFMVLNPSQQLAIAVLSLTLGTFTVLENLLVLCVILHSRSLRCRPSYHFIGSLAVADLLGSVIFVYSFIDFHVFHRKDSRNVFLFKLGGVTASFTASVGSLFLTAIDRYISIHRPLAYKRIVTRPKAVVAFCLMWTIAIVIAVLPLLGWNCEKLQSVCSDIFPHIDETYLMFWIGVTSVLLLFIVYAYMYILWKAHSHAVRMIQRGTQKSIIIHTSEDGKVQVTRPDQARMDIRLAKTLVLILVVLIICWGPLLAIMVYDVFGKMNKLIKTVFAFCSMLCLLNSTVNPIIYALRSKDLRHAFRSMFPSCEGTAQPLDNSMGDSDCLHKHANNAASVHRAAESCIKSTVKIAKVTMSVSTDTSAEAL
# wildtype CB1R, sequence (P21554 whole entry): as above
smiles,measurement,setting,value
"CCCCC/C=C\C/C=C\C/C=C\C/C=C\CCCC(=O)OC(CO)CO [2-AG, 2-arachidonoylglycerol]",jRGECO1a Ca2+ response (G protein activation via Gαq-i),[1],increased jRGECO1a fluorescent response in a dose-dependent manner
same,jRGECO1a Ca2+ response (G protein activation via Gαq-i),[2],failed in inducing jRGECO1a response
same,eCBmut fluorescence response,[3],neither 2-AG nor AEA elicited a response
same,BRET change (Gβγ activation),[4],no effect on BRET
same,BRET change (Gβγ activation),[5],no effect on BRET
same,BRET change (Gβγ activation),[6],robust increase in BRET
same,eCBmut fluorescence response,[7],no response
"CCCCC/C=C\C/C=C\C/C=C\C/C=C\CCCC(=O)NCCO [AEA, anandamide]",eCBmut fluorescence response,[7],no response
Cc1c(C(=O)NN2CCCCC2)nn(-c2ccc(Cl)cc2Cl)c1-c1ccc(I)cc1 [AM251],effect on spontaneous eCB2.0 transients,[8],no longer observed
same,effect on AEA-induced eCB2.0 fluorescence increase,[9],reversed
same,effect on electrically evoked eCB2.0 signal,[9],eliminated the signal induced by even 100 field stimuli
same,effect on electrically evoked eCB2.0 signal,[10],blocked the response
O=C(Oc1ccc([N+](=O)[O-])cc1)N1CCC(C(O)(c2ccc3c(c2)OCO3)c2ccc3c(c2)OCO3)CC1 [JZL184],effect on decay time constant of evoked eCB2.0 signal,[11],significantly increased the decay time constant
O=C(NN1CCCCC1)c1nn(-c2ccc(Cl)cc2Cl)c2c1CCCc1cc(Cl)ccc1-2 [NESS0327],effect on spontaneous eCB2.0 transients,"[8]; NESS0327 1 μM, TTX 1 μM",no longer observed
NC(=O)c1cccc(-c2cccc(OC(=O)NC3CCCCC3)c2)c1 [URB597],effect on decay time constant of evoked eCB2.0 signal,[11],only a slight—albeit significant—effect on the decay time constant
